Source: ChEMBL document CHEMBL5137093, “Improving Drug Delivery While Tailoring Prodrug Activation to Modulate Cmax and Cmin by Optimization of (Carbonyl)oxyalkyl Linker-Based Prodrugs of Atazanavir” (J Med Chem, 2022)
Values after ≈ are worked out from the molar mass of the structure shown.

Legend:
[1] = Tmax in Sprague-Dawley rat at 3 ml/kg,po measured upto 24 hrs by UPLC-MS/MS analysis; format: ADME; details: in vivo
[2] = Relative Cmax ratio of Atazanavir in Sprague-Dawley rat at 3 ml/kg,po measured upto 24 hrs by UPLC-MS/MS analysis; format: ADME; details: in vivo
[3] = Relative AUC ratio of Atazanavir in Sprague-Dawley rat at 3 ml/kg,po measured upto 24 hrs by UPLC-MS/MS analysis; format: ADME; details: in vivo
[4] = AUClast in Sprague-Dawley rat at 3 ml/kg,po measured upto 24 hrs by UPLC-MS/MS analysis; format: ADME; design: time < 24 hrs, dose 3 ml/kg, route po; details: in vivo; for AUClast: 24 h; for AUC(0-t) at 24 h: Sprague-Dawley, 3 ml/kg
[5] = Aqueous stability of the compound in phosphate buffer at pH 6.5 assessed as compound half life measured after 24 hrs by UPLC analysis; format: physicochemical; details: for t1/2: buffer, pH 6.5, 24 h, 24 h; for half-life: phosphate buffer, pH 6.5
[6] = Fold ratio of total AUC of Atazanavir in Sprague-Dawley rat at 3 ml/kg,po measured upto 24 hrs by UPLC-MS/MS analysis; format: ADME; details: in vivo
[7] = Cmax in Sprague-Dawley rat at 3 ml/kg,po measured upto 24 hrs by UPLC-MS/MS analysis; format: ADME; design: dose 3 ml/kg, time < 24 hrs, route po; details: in vivo
[8] = Aqueous stability of the compound in acetate buffer at pH 4 assessed as compound half life measured after 24 hrs by UPLC analysis; format: physicochemical; details: for half-life: acetate buffer, pH 4; for t1/2: buffer, pH 4, 24 h, 24 h
[9] = Aqueous solubility of compound at pH 4 by UPLC analysis; format: physicochemical
[10] = Aqueous stability of the compound in HCL at pH 1 assessed as compound half life measured after 24 hrs by UPLC analysis; format: physicochemical; details: for half-life: aqueous HCl, pH 1; for t1/2: buffer, pH 1, 24 h, 24 h
[11] = Ratio of AUC of Atazanavir in Sprague-Dawley rat at 3 ml/kg,po measured upto 24 hrs by UPLC-MS/MS analysis; format: ADME; details: in vivo
[12] = Aqueous solubility of compound at pH 1 by UPLC analysis; format: physicochemical
[13] = Ratio of Cmax/Cmin of Atazanavir in Sprague-Dawley rat at 3 ml/kg,po measured after 24 hrs by UPLC-MS/MS analysis; format: ADME; details: in vivo
[14] = aqueous medium, read-out: solubility

Compound | Tmax ([1]; Sprague-Dawley, read-out: Tmax) | Ratio [2] | Ratio [3] | AUClast [4] | t1/2 [5] | Ratio [6] | Cmax ([7]; 24 h) | half-life [8] | solubility [9, 14] | half-life [10] | Ratio [11] | solubility [12, 14] | t1/2 [8] | solubility ([9]; buffer) | solubility ([12]; buffer) | half-life [5] | Ratio [13] | Tmax ([1]; po, 24 h) | further results
CCC(C)C(OC(=O)O[C@@H](CN(Cc1ccc(-c2ccccn2)cc1)NC(=O)[C@@H](NC(=O)OC)C(C)(C)C)[C@H](Cc1ccccc1)NC(=O)[C@@H](NC(=O)OC)C(C)(C)C)OC(=O)[C@@H](N)C(C)C (mixture of isomers) | 0.3 h | 3.8 | 2.8 | 0.724 µM·h | 27.3 h | 4.6 | 805 nM | > 500 h | > 1500 µg/mL | > 500 h | 0.68 | > 2100 µg/mL |  |  |  |  |  |  | 
COC(=O)N[C@H](C(=O)N[C@@H](Cc1ccccc1)[C@H](CN(Cc1ccc(-c2ccccn2)cc1)NC(=O)[C@@H](NC(=O)OC)C(C)(C)C)OC(=O)OC(OC(=O)CCN)C(C)C)C(C)(C)C (stereo in doubt; 3aa) |  |  |  |  | 11.4 h |  |  |  |  |  |  |  | 376.3 h | > 2200 µg/mL | > 3000 µg/mL |  |  |  | t1/2 [10]: 376.3 h
COC(=O)N[C@H](C(=O)N[C@@H](Cc1ccccc1)[C@H](CN(Cc1ccc(-c2ccccn2)cc1)NC(=O)[C@@H](NC(=O)OC)C(C)(C)C)OC(=O)OC(OC(=O)C[C@H](N)Cc1cc(F)c(F)cc1F)C(C)C)C(C)(C)C (stereo in doubt; 3ab) |  |  |  |  |  |  |  | 376 h | > 910 µg/mL | > 500 h |  |  |  |  | > 960 µg/mL | 8.9 h |  |  | 
COC(=O)N[C@H](C(=O)N[C@@H](Cc1ccccc1)[C@H](CN(Cc1ccc(-c2ccccn2)cc1)NC(=O)[C@@H](NC(=O)OC)C(C)(C)C)OC(=O)OC(OC(=O)C[C@H](N)Cc1cc(F)c(F)cc1F)C(C)C)C(C)(C)C (stereo in doubt; 3ac) | 3 h | 1.2 | 6.1 |  | 7.4 h | 27 |  |  |  |  | 3.4 |  | 334.3 h | 960 µg/mL (≈ 926 µM) | > 2400 µg/mL |  | 36.4 |  | AUC(0-t) at 24 h [4]: 8.01 µM·h; Cmax ([7]; Sprague-Dawley, 3 ml/kg): 989 nM
COC(=O)N[C@H](C(=O)N[C@@H](Cc1ccccc1)[C@H](CN(Cc1ccc(-c2ccccn2)cc1)NC(=O)[C@@H](NC(=O)OC)C(C)(C)C)OC(=O)OC(OC(=O)[C@H](C)N)C(C)C)C(C)(C)C (stereo in doubt; 3p) | 0.4 h | 0.9 | 0.8 | 0.019 µM·h |  | 0.9 | 34 nM | 41.8 h | > 2400 µg/mL | 158 h | 0.06 | > 1600 µg/mL |  |  |  | 3.6 h |  |  | 
COC(=O)N[C@H](C(=O)N[C@@H](Cc1ccccc1)[C@H](CN(Cc1ccc(-c2ccccn2)cc1)NC(=O)[C@@H](NC(=O)OC)C(C)(C)C)OC(=O)OC(OC(=O)[C@H](C)N)C(C)C)C(C)(C)C (stereo in doubt; 3q) |  | 2.3 | 1.8 | 2.129 µM·h | 2.7 h | 7.3 | 1900 nM |  |  |  | 3.09 |  | 30.4 h | > 1800 µg/mL | > 1700 µg/mL |  | 1505 | 0.3 h | t1/2 [10]: 125.4 h
COC(=O)N[C@H](C(=O)N[C@@H](Cc1ccccc1)[C@H](CN(Cc1ccc(-c2ccccn2)cc1)NC(=O)[C@@H](NC(=O)OC)C(C)(C)C)OC(=O)OC(OC(=O)[C@@H](N)C(C)C)C(C)C)C(C)(C)C (stereo in doubt; 3r) |  | 3.4 | 3.6 |  | 10.6 h | 3.6 |  | > 500 h | > 2500 µg/mL | > 500 h | 0 | > 2600 µg/mL |  |  |  |  | 761.7 |  | 
COC(=O)N[C@H](C(=O)N[C@@H](Cc1ccccc1)[C@H](CN(Cc1ccc(-c2ccccn2)cc1)NC(=O)[C@@H](NC(=O)OC)C(C)(C)C)OC(=O)OC(OC(=O)[C@@H](N)CC(C)C)C(C)C)C(C)(C)C (stereo in doubt; 3t) |  | 2.1 | 1.3 |  | 12 h | 1.3 |  |  | > 1100 µg/mL |  | 0 | > 1400 µg/mL | 136.8 h |  |  |  | 304.4 |  | t1/2 [10]: > 500 h
COC(=O)N[C@H](C(=O)N[C@@H](Cc1ccccc1)[C@H](CN(Cc1ccc(-c2ccccn2)cc1)NC(=O)[C@@H](NC(=O)OC)C(C)(C)C)OC(=O)OC(OC(=O)[C@@H](N)CC(C)C)C(C)C)C(C)(C)C (stereo in doubt; 3u) | 0.3 h | 2.9 | 2.1 |  | 5.9 h | 2.4 |  |  |  |  | 0.13 |  | 59 h | > 1600 µg/mL | > 1480 µg/mL |  |  |  | AUC(0-t) at 24 h [4]: 0.105 µM·h; Cmax ([7]; Sprague-Dawley, 3 ml/kg): 182 nM; t1/2 [10]: 136.8 h
COC(=O)N[C@H](C(=O)N[C@@H](Cc1ccccc1)[C@H](CN(Cc1ccc(-c2ccccn2)cc1)NC(=O)[C@@H](NC(=O)OC)C(C)(C)C)OC(=O)OC(OC(=O)CCN)C(C)C)C(C)(C)C (stereo in doubt; 3z) | 1.3 h | 6.9 | 8.7 |  |  | 8.7 |  | 334 h | > 1500 µg/mL | > 500 h | 0 | > 1700 µg/mL |  |  |  | 10.1 h | 1309.3 |  | AUC(0-t) at 24 h [4]: 0.007 µM·h; Cmax ([7]; Sprague-Dawley, 3 ml/kg): 6 nM
CCC(C)C(OC(=O)O[C@@H](CN(Cc1ccc(-c2ccccn2)cc1)NC(=O)[C@@H](NC(=O)OC)C(C)(C)C)[C@H](Cc1ccccc1)NC(=O)[C@@H](NC(=O)OC)C(C)(C)C)OC(=O)[C@@H](N)C(C)C (stereo in doubt; 4k) |  | 3.7 | 3.2 | 1.658 µM·h | 13.4 h | 7.5 | 1840 nM |  |  |  | 1.34 |  | 334.4 h | > 2600 µg/mL |  |  | 1631.7 |  | 
COC(=O)N[C@H](C(=O)N[C@@H](Cc1ccccc1)[C@H](CN(Cc1ccc(-c2ccccn2)cc1)NC(=O)[C@@H](NC(=O)OC)C(C)(C)C)OC(=O)OC(OC(=O)[C@@H](N)C(C)C)C(C)(C)C)C(C)(C)C (stereo in doubt; 4m) |  | 1.9 | 2 | 0.006 µM·h | 23.7 h | 2 | 27 nM |  |  |  | 0.01 |  |  | > 1000 µg/mL | > 1200 µg/mL |  | 721.4 | 0.3 h | 
COC(=O)N[C@H](C(=O)N[C@@H](Cc1ccccc1)[C@H](CN(Cc1ccc(-c2ccccn2)cc1)NC(=O)[C@@H](NC(=O)OC)C(C)(C)C)OC(=O)OC(OC(=O)[C@@H](N)C(C)C)C1CCCCC1)C(C)(C)C (stereo in doubt; 4o) |  | 1.4 | 1.1 | 0.406 µM·h | 12.7 h | 2.1 | 395 nM |  |  |  | 0.98 |  | > 500 h | > 1100 µg/mL | > 2000 µg/mL |  |  | 0.3 h | 
CN[C@H](C(=O)OC(OC(=O)O[C@@H](CN(Cc1ccc(-c2ccccn2)cc1)NC(=O)[C@@H](NC(=O)OC)C(C)(C)C)[C@H](Cc1ccccc1)NC(=O)[C@@H](NC(=O)OC)C(C)(C)C)C(C)C)C(C)C (stereo in doubt; 5e) |  | 4.7 | 5.3 | 0.262 µM·h |  | 6 |  | 376 h | > 1400 µg/mL | > 500 h | 0.13 | > 2500 µg/mL |  |  |  | 4.7 h | 364.4 | 0.3 h | Cmax ([7]; Sprague-Dawley, 3 ml/kg): 342 nM
CN[C@H](C(=O)OC(OC(=O)O[C@@H](CN(Cc1ccc(-c2ccccn2)cc1)NC(=O)[C@@H](NC(=O)OC)C(C)(C)C)[C@H](Cc1ccccc1)NC(=O)[C@@H](NC(=O)OC)C(C)(C)C)C(C)C)C(C)C (stereo in doubt; 5f) |  | 2.1 | 4.4 | 0.996 µM·h | 2.87 h | 7 | 382 nM |  |  |  | 0.59 |  | > 500 h | > 1900 µg/mL | > 2000 µg/mL |  | 194.1 | 0.7 h | 
COC(=O)N[C@H](C(=O)N[C@@H](Cc1ccccc1)[C@H](CN(Cc1ccc(-c2ccccn2)cc1)NC(=O)[C@@H](NC(=O)OC)C(C)(C)C)OC(=O)OC(OC(=O)[C@@H](NC(=O)[C@H](N)C(C)C)C(C)C)C(C)C)C(C)(C)C (stereo in doubt; 6g) |  |  |  |  |  |  |  | 232 h | > 1200 µg/mL | > 500 h |  | > 2200 µg/mL |  |  |  | 6.1 h |  |  | 
